Experimental data from patent US10494332B2, “Protein tyrosine phosphatases or SHP2 inhibitors and uses thereof” (Indiana University Research and Technology Corporation, priority 2015, dated 2019).

These molecules were tested against T1, HePTP (Homo sapiens, UniProt P35236) (assay: PTP inhibition assay (pNPP)). Settings: […]; HePTP.
T1 sequence (P35236 1-360): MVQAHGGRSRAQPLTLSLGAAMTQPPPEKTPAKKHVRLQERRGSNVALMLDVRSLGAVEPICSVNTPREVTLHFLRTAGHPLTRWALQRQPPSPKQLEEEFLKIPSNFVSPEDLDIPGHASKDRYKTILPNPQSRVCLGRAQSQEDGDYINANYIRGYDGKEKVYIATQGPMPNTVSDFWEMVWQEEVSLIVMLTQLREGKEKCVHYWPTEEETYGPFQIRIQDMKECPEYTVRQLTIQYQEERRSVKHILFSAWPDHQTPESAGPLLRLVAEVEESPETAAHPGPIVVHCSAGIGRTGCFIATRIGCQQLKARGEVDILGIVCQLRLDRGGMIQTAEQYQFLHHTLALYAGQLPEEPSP
Format: biochemical

| Structure (SMILES) | IC50 |
| --- | --- |
| O=C(Nc1ccc(N2CCOCC2)cc1)C(c1ccccc1F)S(=O)(=O)O (stereo not drawn) [Compound L319-06-M68] | 22 µM |
| O=C(Nc1ccc(N2CCOCC2)cc1)C(c1ccccc1Cl)S(=O)(=O)O (stereo not drawn) [Compound L319-07-M68] | 11 µM |
| O=C(NNc1ccccc1)C(c1ccc([N+](=O)[O-])cc1)S(=O)(=O)O (stereo not drawn) [Compound L319-08-N58] | 16 µM |
| Cc1ccc(C(C(=O)Nc2ccc(N3CCOCC3)cc2)S(=O)(=O)O)cc1 (stereo not drawn) [Compound L319-11-M68] | 3.2 µM |
| O=C(Nc1ccc(N2CCOCC2)cc1)C(c1ccc(Br)cc1)S(=O)(=O)O (stereo not drawn) [Compound L319-12-M68] | 3.9 µM |
| O=C(Nc1ccc(N2CCOCC2)cc1)C(c1cccc(F)c1)S(=O)(=O)O (stereo not drawn) [Compound L319-13-M68] | 4.3 µM |
| O=C(Nc1ccc(OCc2ccccc2)c(Cl)c1)C(c1ccc2ccccc2c1)S(=O)(=O)O (stereo not drawn) [Compound L319-14-M50] | 25 µM |
| O=C(Nc1ccc(N2CCOCC2)cc1)C(c1ccc2ccccc2c1)S(=O)(=O)O (stereo not drawn) [Compound L319-14-M68] | 4.5 µM |
| CC(C)CCNC(=O)C(c1ccc2ccccc2c1)S(=O)(=O)O (stereo not drawn) [Compound L319-14-N03] | 24 µM |

What follows are molecules tested against T2, LYP (Homo sapiens, UniProt Q9Y2R2) (assay: PTP inhibition assay (pNPP)). Settings: […]; LYP.
T2 sequence (Q9Y2R2 1-807): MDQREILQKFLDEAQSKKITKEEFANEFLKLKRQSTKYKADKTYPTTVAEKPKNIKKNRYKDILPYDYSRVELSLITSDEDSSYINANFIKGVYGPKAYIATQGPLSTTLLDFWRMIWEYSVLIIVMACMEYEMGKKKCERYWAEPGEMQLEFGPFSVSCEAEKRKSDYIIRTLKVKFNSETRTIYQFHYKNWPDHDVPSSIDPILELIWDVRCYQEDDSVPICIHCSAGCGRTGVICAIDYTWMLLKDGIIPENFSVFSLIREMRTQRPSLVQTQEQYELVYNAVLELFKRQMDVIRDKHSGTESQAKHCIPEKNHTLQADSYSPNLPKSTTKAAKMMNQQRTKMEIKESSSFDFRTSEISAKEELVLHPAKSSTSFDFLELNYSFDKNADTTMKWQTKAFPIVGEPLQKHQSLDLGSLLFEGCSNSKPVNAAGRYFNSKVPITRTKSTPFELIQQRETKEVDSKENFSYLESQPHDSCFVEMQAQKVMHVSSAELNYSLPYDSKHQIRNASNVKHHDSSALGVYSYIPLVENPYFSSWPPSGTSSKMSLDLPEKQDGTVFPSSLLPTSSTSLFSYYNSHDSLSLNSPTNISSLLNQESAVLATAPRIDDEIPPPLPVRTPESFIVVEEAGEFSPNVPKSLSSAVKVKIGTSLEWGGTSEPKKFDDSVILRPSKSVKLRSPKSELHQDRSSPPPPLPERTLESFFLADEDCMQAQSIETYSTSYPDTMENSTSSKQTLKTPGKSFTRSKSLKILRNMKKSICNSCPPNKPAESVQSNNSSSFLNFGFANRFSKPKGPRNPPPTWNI
Format: biochemical

| Structure (SMILES) | IC50 |
| --- | --- |
| O=C(Nc1ccc(N2CCOCC2)cc1)C(c1ccccc1F)S(=O)(=O)O (stereo not drawn) [Compound L319-06-M68] | > 100 µM |
| O=C(Nc1ccc(N2CCOCC2)cc1)C(c1ccccc1Cl)S(=O)(=O)O (stereo not drawn) [Compound L319-07-M68] | > 100 µM |
| O=C(NNc1ccccc1)C(c1ccc([N+](=O)[O-])cc1)S(=O)(=O)O (stereo not drawn) [Compound L319-08-N58] | 9.9 µM |
| Cc1ccc(C(C(=O)Nc2ccc(N3CCOCC3)cc2)S(=O)(=O)O)cc1 (stereo not drawn) [Compound L319-11-M68] | 7.6 µM |
| O=C(Nc1ccc(N2CCOCC2)cc1)C(c1ccc(Br)cc1)S(=O)(=O)O (stereo not drawn) [Compound L319-12-M68] | 7.43 µM |
| O=C(Nc1ccc(N2CCOCC2)cc1)C(c1cccc(F)c1)S(=O)(=O)O (stereo not drawn) [Compound L319-13-M68] | 10 µM |
| O=C(Nc1ccc(OCc2ccccc2)c(Cl)c1)C(c1ccc2ccccc2c1)S(=O)(=O)O (stereo not drawn) [Compound L319-14-M50] | 23 µM |
| O=C(Nc1ccc(N2CCOCC2)cc1)C(c1ccc2ccccc2c1)S(=O)(=O)O (stereo not drawn) [Compound L319-14-M68] | 8.3 µM |
| CC(C)CCNC(=O)C(c1ccc2ccccc2c1)S(=O)(=O)O (stereo not drawn) [Compound L319-14-N03] | 11.6 µM |

Each molecule was assayed against T3, SHP2 (Homo sapiens, UniProt Q06124) (assay: SHP2 phosphatase inhibition assay (pNPP)). Settings: […]; SHP2; read-out: IC50 SHP2.
T3 sequence (Q06124 224-528): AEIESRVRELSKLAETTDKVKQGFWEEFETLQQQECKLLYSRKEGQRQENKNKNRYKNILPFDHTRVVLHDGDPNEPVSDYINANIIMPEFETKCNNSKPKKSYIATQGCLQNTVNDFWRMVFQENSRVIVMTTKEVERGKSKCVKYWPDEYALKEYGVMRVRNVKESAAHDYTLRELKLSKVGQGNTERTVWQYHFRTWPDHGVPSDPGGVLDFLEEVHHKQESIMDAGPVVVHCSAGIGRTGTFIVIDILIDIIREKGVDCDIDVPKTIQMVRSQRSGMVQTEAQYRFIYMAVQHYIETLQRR
Format: biochemical

| Structure (SMILES) | IC50 |
| --- | --- |
| O=C(Nc1ccc(N2CCOCC2)cc1)C(c1ccccc1F)S(=O)(=O)O (stereo not drawn) [Compound L319-06-M68] | > 100 µM |
| O=C(Nc1ccc(N2CCOCC2)cc1)C(c1ccccc1Cl)S(=O)(=O)O (stereo not drawn) [Compound L319-07-M68] | > 100 µM |
| O=C(NNc1ccccc1)C(c1ccc([N+](=O)[O-])cc1)S(=O)(=O)O (stereo not drawn) [Compound L319-08-N58] | 7.28 µM |
| Cc1ccc(C(C(=O)Nc2ccc(N3CCOCC3)cc2)S(=O)(=O)O)cc1 (stereo not drawn) [Compound L319-11-M68] | > 100 µM |
| O=C(Nc1ccc(N2CCOCC2)cc1)C(c1ccc(Br)cc1)S(=O)(=O)O (stereo not drawn) [Compound L319-12-M68] | > 100 µM |
| O=C(Nc1ccc(N2CCOCC2)cc1)C(c1cccc(F)c1)S(=O)(=O)O (stereo not drawn) [Compound L319-13-M68] | > 100 µM |
| O=C(Nc1ccc(OCc2ccccc2)c(Cl)c1)C(c1ccc2ccccc2c1)S(=O)(=O)O (stereo not drawn) [Compound L319-14-M50] | 24 µM |
| O=C(Nc1ccc(N2CCOCC2)cc1)C(c1ccc2ccccc2c1)S(=O)(=O)O (stereo not drawn) [Compound L319-14-M68] | > 100 µM |
| CC(C)CCNC(=O)C(c1ccc2ccccc2c1)S(=O)(=O)O (stereo not drawn) [Compound L319-14-N03] | 74 µM |

These molecules were tested against T4, LMWPTP (Homo sapiens, UniProt P24666) (assay: PTP inhibition assay (pNPP)). Settings: […]; LMWPTP.
T4 sequence (P24666 1-158): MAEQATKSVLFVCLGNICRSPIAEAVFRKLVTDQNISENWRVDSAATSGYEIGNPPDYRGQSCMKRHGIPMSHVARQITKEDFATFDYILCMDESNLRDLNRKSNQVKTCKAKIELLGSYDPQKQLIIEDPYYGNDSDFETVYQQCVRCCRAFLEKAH
Format: biochemical

| Structure (SMILES) | IC50 |
| --- | --- |
| O=C(Nc1ccc(N2CCOCC2)cc1)C(c1ccccc1F)S(=O)(=O)O (stereo not drawn) [Compound L319-06-M68] | > 100 µM |
| O=C(Nc1ccc(N2CCOCC2)cc1)C(c1ccccc1Cl)S(=O)(=O)O (stereo not drawn) [Compound L319-07-M68] | > 100 µM |
| O=C(NNc1ccccc1)C(c1ccc([N+](=O)[O-])cc1)S(=O)(=O)O (stereo not drawn) [Compound L319-08-N58] | 11 µM |
| Cc1ccc(C(C(=O)Nc2ccc(N3CCOCC3)cc2)S(=O)(=O)O)cc1 (stereo not drawn) [Compound L319-11-M68] | > 100 µM |
| O=C(Nc1ccc(N2CCOCC2)cc1)C(c1ccc(Br)cc1)S(=O)(=O)O (stereo not drawn) [Compound L319-12-M68] | 21 µM |
| O=C(Nc1ccc(N2CCOCC2)cc1)C(c1cccc(F)c1)S(=O)(=O)O (stereo not drawn) [Compound L319-13-M68] | 27 µM |
| O=C(Nc1ccc(OCc2ccccc2)c(Cl)c1)C(c1ccc2ccccc2c1)S(=O)(=O)O (stereo not drawn) [Compound L319-14-M50] | 28.8 µM |
| O=C(Nc1ccc(N2CCOCC2)cc1)C(c1ccc2ccccc2c1)S(=O)(=O)O (stereo not drawn) [Compound L319-14-M68] | > 100 µM |
| CC(C)CCNC(=O)C(c1ccc2ccccc2c1)S(=O)(=O)O (stereo not drawn) [Compound L319-14-N03] | > 100 µM |
